Experimental data reported in patent publication US12410155B2, “Salt form and crystal form of tetrahydrocyclohepta indazole compound” (Zhejiang Yangli Pharmaceutical Technology Co., Ltd., priority 2021, dated 2025).
Read-outs that look alike come from different tables or passages of the source.

Experiments:
[1] = tested on: human breast cancer MCF-7 cell subcutaneous xenograft tumor; assay type: in vivo; settings: for Tumor volume (mm^3) (Day 0): Day 0 (at grouping); for RTV (Day 21) / Tumor volume (mm^3) (Day 21) / T/C (%) / TGI (%): Day 21
Method: (1) In Vivo Pharmacodynamic Study of Breast Cancer MCF-7 Cell Subcutaneous Xenograft Tumor BALB/c Nude Mouse Model
Objective: This study aimed to evaluate the in vivo efficacy of the crystal form C of the compound of formula (I) using a human breast cancer MCF-7 cell subcutaneous xenograft tumor model in nude mice.
Routine digestion with trypsin-EDTA (Gibco) was performed twice a week for passaging.
Cell inoculation: Estrogen pellets (0.36 mg/pellet; IRA) were subcutaneously inoculated into the left dorsum of each mouse. Three days later, 0.2 mL (1×10^7 cells) of MCF-7 cells (mixed with Matrigel; CORNING, volume ratio 1:1) were subcutaneously inoculated into the right dorsum of each mouse. When the average tumor volume reached 188 mm^3, the mice were grouped and the administration of compounds began.
An appropriate amount of the compound of formula (I) was weighed and prepared into 0.1, 0.3, 1, and 3 mg/mL solutions. […] Fulvestrant was used as the commercially available injection Faslodex.
The antitumor efficacy of the compounds was evaluated using Tumor Growth Inhibition (TGI, %) and relative tumor proliferation rate (T/C, %).
The Q value of combined medication index was calculated using the Jin formula. The criteria for judgment were as follows: a Q value of 0.85 to 1.15 indicated […] (+); a Q value>1.15 to 2.0 indicated enhancement (++); a Q value<0.85 to 0.55 indicated antagonism (−); and a Q value<0.55 indicated significant antagonism (−−). The formula was Q=Ea+b/(Ea+Eb−Ea×Eb), where Ea+b was the tumor inhibition rate of the combined medication group, and Ea and Eb were the tumor inhibition rates of the single medication groups, respectively.
Inter-group comparisons were analyzed using one-way ANOVA. […] A p value<0.05 was considered to indicate a significant difference.

[2] = Pharmacokinetic study in mice; assay type: in vivo; settings: female, Balb/c, mouse, plasma
Method: (2) Pharmacokinetic Study in Mice
Objective: To determine the concentration of the test compound in plasma at various time points after intravenous and intragastric administration in female Balb/c mice using the LC/MS/MS method. To investigate the pharmacokinetic behavior of the crystal form C of the compound of formula (I) in mice and to evaluate its pharmacokinetic characteristics.
Administration: After an overnight fast, the IV group received intravenous administration at a dose of 5 mg/kg; the PO group received intragastric administration at a dose of 10 mg/kg.
For the intravenous injection group, female Balb/c mice were administered the test compound, and blood samples (30 μL) were collected from the saphenous vein at 0.0833, 0.25, 0.5, 1, 2, 4, 8, and 24 hours post-administration. The samples were placed into commercially available anticoagulant tubes pre-filled with EDTA-K2. For the intragastric administration group, after administering the test compound, blood samples (30 μL) were collected from the jugular vein at 0.25, 0.5, 1, 2, 4, 8, 12, and 24 hours. These samples were also placed into commercially available anticoagulant tubes pre-filled with EDTA-K2. Following centrifugation (3,200 g, 4° C., 10 minutes), the plasma was transferred to pre-chilled centrifuge tubes, flash-frozen in dry ice, and stored in an ultra-low temperature freezer at −60° C. or lower until LC-MS/MS analysis. Animals were allowed to eat 4 hours post-dosing. The concentration of the test compound in the plasma of mice after intravenous and intragastric administration was determined using the LC/MS/MS method.

breast cancer = settings: intramuscular injection; cited from earlier work
[3] = in vivo; cited from earlier work
[4] = Pharmacokinetic study in Beagle dogs; assay type: in vivo; settings: both sexes, dog, plasma, Beagles
Method: (4) Pharmacokinetic Study in Beagle Dogs
Objective: To determine the concentration of the test compound in plasma at various time points after intravenous and intragastric administration in male and female Beagle dogs using the LC/MS/MS method.
An appropriate amount of the sample was weighed and prepared into 0.2 mg/mL and 0.3 mg/mL solutions, stirred until a clear solution was obtained, with 20% SBE-β-CD as the vehicle.
Administration: After an overnight fast, the IV group received intravenous administration at a dose of 0.3 mg/kg; the PO group received intragastric administration at a dose of 1 mg/kg.
For the intravenous injection group, Beagle dogs were administered the test compound, and blood samples (800 μL) were collected from the peripheral vein at 0.25, 0.5, 1, 2, 4, 6, 8, 24, 32, 48, 72, and 96 hours post-administration. The samples were placed into commercially available anticoagulant tubes pre-filled with EDTA-K2. For the intragastric administration group, after administering the test compound, blood samples (800 μL) were collected from the peripheral vein at 0.25, 0.5, 1, 2, 4, 6, 8, 24, 32, 48, 72, and 96 hours. These samples were also placed into commercially available anticoagulant tubes pre-filled with EDTA-K2. Following centrifugation (3,200 g, 2-8° C., 10 minutes), the plasma was transferred to pre-chilled centrifuge tubes, flash-frozen in dry ice, and stored in an ultra-low temperature freezer at −60° C. or lower until LC-MS/MS analysis. Animals were allowed to eat 4 hours post-dosing. The concentration of the test compound in the plasma of Beagle dogs after intravenous and intragastric administration was determined using the LC/MS/MS method.

[5] = Pharmacokinetic study in rats; assay type: in vivo; settings: both sexes, Sprague-Dawley, rat, plasma
Method: (3) Pharmacokinetic Study in Rats
Objective: To determine the concentration of the test compound in plasma at various time points after intravenous and intragastric administration in male and female Sprague-Dawley rats using the LC/MS/MS method.
An appropriate amount of the sample was weighed and prepared into a 0.2 mg/ml solution, and stirred until a clear solution was obtained, with 20% SBE-β-CD as the vehicle.
Administration: After an overnight fast, the IV group received intravenous administration at a dose of 1 mg/kg; the PO group received intragastric administration at a dose of 2 mg/kg.
For the intravenous injection group, male and female Sprague-Dawley rats were administered the test compound, and blood samples (200 μL) were collected from the jugular vein at 0.0830, 0.250, 0.500, 1.00, 2.00, 4.00, 6.00, 8.00, 24.0, 32.0, and 48.0 hours post-administration. The samples were placed into commercially available anticoagulant tubes pre-filled with EDTA-K2. For the intragastric administration group, after administering the test compound, blood samples (200 μL) were collected from the jugular vein at 0.250, 0.500, 1.00, 2.00, 4.00, 6.00, 8.00, 24.0, 32.0, and 48.0 hours. These samples were also placed into commercially available anticoagulant tubes pre-filled with EDTA-K2. Following centrifugation (3,200 g, 4° C., 10 minutes), the plasma was transferred to pre-chilled centrifuge tubes, flash-frozen in dry ice, and stored in an ultra-low temperature freezer at −60° C. or lower until LC-MS/MS analysis. Animals were allowed to eat 4 hours post-dosing. The concentration of the test compound in the plasma of rats after intravenous and intragastric administration was determined using the LC/MS/MS method.

With `FCCCN1CC[C@H](Nc2cnc(C3=C(CC(F)(F)F)CCCc4c3ccc3[nH]nc(F)c43)cn2)C1` the ORR % ([1]; 1 mg/kg, PO, QD) was 0%, the “Tumor volume (mm^3) (Day 0)” value ([1]; 1 mg/kg, PO, QD) was 188 ± 12 mm^3 and the “RTV (Day 21)” value ([1]; 1 mg/kg, PO, QD) was 1.82 ± 0.12. The “Tumor volume (mm^3) (Day 21)” value ([1]; 1 mg/kg, PO, QD) was 340 ± 30 mm^3, the DCR % ([1]; 3 mg/kg, PO, QD) was 100% and the ORR % ([1]; 3 mg/kg, PO, QD) was 0%. The “Tumor volume (mm^3) (Day 0)” value ([1]; 3 mg/kg, PO, QD) was 188 ± 13 mm^3, the “RTV (Day 21)” value ([1]; 3 mg/kg, PO, QD) was 0.99 ± 0.11 and the “Tumor volume (mm^3) (Day 21)” value ([1]; 3 mg/kg, PO, QD) was 179 ± 14 mm^3. For the same compound, the “Tumor volume (mm^3) (Day 0)” value ([1]; 10 mg/kg, PO, QD) was 188 ± 12 mm^3, the “RTV (Day 21)” value ([1]; 10 mg/kg, PO, QD) was 0.75 ± 0.09 and the “Tumor volume (mm^3) (Day 21)” value ([1]; 10 mg/kg, PO, QD) was 140 ± 18 mm^3. The “Tumor volume (mm^3) (Day 0)” value ([1]; 30 mg/kg, PO, QD) was 188 ± 12 mm^3, the “RTV (Day 21)” value ([1]; 30 mg/kg, PO, QD) was 0.64 ± 0.07 and the “Tumor volume (mm^3) (Day 21)” value ([1]; 30 mg/kg, PO, QD) was 121 ± 13 mm^3. The “Tolerability in tumor-bearing mice” value ([1]; 1 to 30 mg/kg, PO, QD) was “tolerated the crystal form C of the compound of formula (I) well”, the AUC(0-t) ([2]; IV, 5 mg/kg) was 5.27 µM·h and the clearance ([2]; IV, 5 mg/kg) was 30.2 mL/min/kg. For the same compound, the half-life ([2]; IV, 5 mg/kg) was 5.16 h, the Vd ([2]; IV, 5 mg/kg, read-out: Vdss) was 11.1 L/kg and the AUC(0-t) ([2]; PO, 10 mg/kg) was 5.86 µM·h. The Cmax ([2]; PO, 10 mg/kg) was 779 nM, the bioavailability ([2]; PO, 10 mg/kg) was 55.4% and the half-life ([2]; PO, 10 mg/kg) was 4.72 h.

For `C[C@]12CC[C@@H]3c4ccc(O)cc4C[C@@H](CCCCCCCCC[S+]([O-])CCCC(F)(F)C(F)(F)F)[C@H]3[C@@H]1CC[C@@H]2O` (stereo partly drawn) [Fulvestrant, reference compound], the “breast cancer patients showing a clinical response” value (breast cancer) is listed as “about 50%”, the oral bioavailability [3] is listed as “near-zero” and the DCR % ([1]; 5 mg/mouse, SC, QW) is listed as 0%. The “Tumor volume (mm^3) (Day 0)” value ([1]; 5 mg/mouse, SC, QW) was 188 ± 12 mm^3, the “RTV (Day 21)” value ([1]; 5 mg/mouse, SC, QW) was 3.12 ± 0.31 and the “T/C (%)” value ([1]; 5 mg/mouse, SC, QW) was 46.9%. The “TGI (%)” value ([1]; 5 mg/mouse, SC, QW) was 60.9%, the “Tumor volume (mm^3) (Day 21)” value ([1]; 5 mg/mouse, SC, QW) was 593 ± 79 mm^3 and the “Tumor volume (mm^3) (Day 21)” value ([1]; 5 mg/mouse, SC, QW, listed as fulvestrant) was 593 mm^3.

Work on `CS(=O)(=O)O.FCCCN1CC[C@H](Nc2cnc(C3=C(CC(F)(F)F)CCCc4c3ccc3[nH]nc(F)c43)cn2)C1` yielded an AUC(0-t) ([4]; IV, 0.3 mg/kg) of 1.31 µM·h, a clearance ([4]; IV, 0.3 mg/kg) of 3.8 mL/min/kg and a half-life ([4]; IV, 0.3 mg/kg) of 24.2 h. It also gave a Vd ([4]; IV, 0.3 mg/kg, read-out: Vdss) of 7.48 L/kg, an AUC(0-t) ([4]; PO, 1 mg/kg) of 2.27 µM·h and a Cmax ([4]; PO, 1 mg/kg) of 61 nM. It also gave a bioavailability ([4]; PO, 1 mg/kg) of 52%, a half-life ([4]; PO, 1 mg/kg) of 21.6 h and an AUC(0-t) ([5]; IV, 1 mg/kg) of 1.71 µM·h. The clearance ([5]; IV, 1 mg/kg) was 22.1 mL/min/kg, the half-life ([5]; IV, 1 mg/kg) was 10.6 h and the Vd ([5]; IV, 1 mg/kg, read-out: Vdss) was 13.6 L/kg. For the same compound, the AUC(0-t) ([5]; PO, 2 mg/kg) was 1.63 µM·h, the Cmax ([5]; PO, 2 mg/kg) was 87.7 nM and the bioavailability ([5]; PO, 2 mg/kg) was 47.7%. For the same compound, the half-life ([5]; PO, 2 mg/kg) was 10.3 h.

For `CC(=O)c1c(C)c2cnc(Nc3ccc(N4CCNCC4)cn3)nc2n(C2CCCC2)c1=O` [Palbociclib, reference compound], the DCR % ([1]; 25 mg/kg, PO, QD) was 12.5%, the ORR % ([1]; 25 mg/kg, PO, QD) was 0% and the “Tumor volume (mm^3) (Day 0)” value ([1]; 25 mg/kg, PO, QD) was 188 ± 12 mm^3. For the same compound, the “RTV (Day 21)” value ([1]; 25 mg/kg, PO, QD) was 4.26 ± 0.51, the “T/C (%)” value ([1]; 25 mg/kg, PO, QD) was 64.0% and the “TGI (%)” value ([1]; 25 mg/kg, PO, QD) was 42.8%. The “Tumor volume (mm^3) (Day 21)” value ([1]; 25 mg/kg, PO, QD) was 781 ± 77 mm^3 and the “Tumor volume (mm^3) (Day 21)” value ([1]; 25 mg/kg, PO, QD, listed as palbociclib) was 781 mm^3.
